Reference: patent US11844776B2, “Composition for treatment and/or prevention of peripheral nerve disorder” (OSAKA CITY UNIVERSITY, priority 2016, dated 2023)

Tests used:
[1] = tested on: sciatic nerve injury model mice; assay: Functional analysis of sciatic nerves in sciatic nerve injury models; type: in vivo, mouse
Experimental: To investigate the effect of SNJ1945 on promoting peripheral nerve regeneration, mouse sciatic nerve injury models were prepared and histologically analyzed. The models were used as sciatic nerve injury model mice produced according to the method of Wall et al. (Wall, 1979). More specifically, model mice were produced in the following manner. Four-week-old female mice were subjected to general anesthesia with sevoflurane inhalation anesthesia (Mylan N.V.) and laid down in a prone position. The skin on the femur was incised. The muscle layer was peeled off carefully and quickly so as not to injure the sciatic nerve. The nerve was severed (completely injured) at mid-thigh at one point with an interval of 40 mm from the periphery. The muscle layer and the skin were then sutured and disinfected. The mice were used as complete nerve injury model mice. Administration of SNJ1945 was performed by mixing SNJ-1945 into a diet (CE-2, CLEA Japan, Inc.) and orally administering the mixture continuously to each mouse in an amount of 200 μg of SNJ1945/per gram of body weight/day. […]
To further investigate the peripheral nerve regeneration promotion effect of SNJ1945, motor function of sciatic nerve injury model mice was evaluated based on the sciatic function index (SFI) and print length factor (PLI) using Footprint (Bain et al., 1989).

LIS1 protein [2] = details: disclosed in WO2012/074120; based on calpain inhibitory activity; cited from earlier work
[3] = tested on: dorsal root ganglion neurons; assay: Effect of SNJ1945 on axon elongation in mouse dorsal root ganglion neurons; type: cell-based; details: 200 μM, 24 or 48 hours, vs 1% DMSO
Experimental: Dorsal root ganglions were aseptically extracted from postnatal mice (3, 10, or 15 days old) under a stereoscopic microscope, and tissue fragments were dispersed by gentle pipetting and then treated with 0.025% trypsin/0.0013% DNaseI (both being final concentrations) at 37° C. for 20 minutes. After centrifugation, a BME culture solution (Gibco) containing 10% equine blood serum was added, and washing was performed. After the enzyme reaction was stopped, a BME culture solution containing 0.0052% DNaseI/10% equine blood serum (both being final concentrations) was added, and pipetting was performed. […] After incubation for another 15 minutes at room temperature, the resulting aggregates were washed well and carefully embedded using glycerol for fluorescence microscope observation (Merck) so as not to break up the aggregates. […] Dorsal root ganglion neurons were also isolated from LIS1 hetero mice (3 days old) and analyzed in the same manner.
Dorsal root ganglion neurons were isolated from 3-day-old mice or 15-day-old mice, and the correlation between the presence or absence of SNJ1945 addition and axon length was analyzed. […]

[4] = tested on: sciatic nerve injury model mice; assay: Histological analysis of sciatic nerves in sciatic nerve injury models; type: in vivo, mouse
Experimental: To investigate the effect of SNJ1945 on promoting peripheral nerve regeneration, mouse sciatic nerve injury models were prepared and histologically analyzed. The models were used as sciatic nerve injury model mice produced according to the method of Wall et al. (Wall, 1979). More specifically, model mice were produced in the following manner. Four-week-old female mice were subjected to general anesthesia with sevoflurane inhalation anesthesia (Mylan N.V.) and laid down in a prone position. The skin on the femur was incised. The muscle layer was peeled off carefully and quickly so as not to injure the sciatic nerve. The nerve was severed (completely injured) at mid-thigh at one point with an interval of 40 mm from the periphery. The muscle layer and the skin were then sutured and disinfected. The mice were used as complete nerve injury model mice. Administration of SNJ1945 was performed by mixing SNJ-1945 into a diet (CE-2, CLEA Japan, Inc.) and orally administering the mixture continuously to each mouse in an amount of 200 μg of SNJ1945/per gram of body weight/day. Mice that were subjected to the same complete nerve injury and maintained on a diet not containing SNJ1945 (CE-2, CLEA Japan, Inc.) were used as a control group.
For histological analysis, after the mice were sacrificed by cervical dislocation, sciatic nerves were removed and fixed in 4% paraformaldehyde for 24 hours. After the paraformaldehyde was replaced with PBS, the sciatic nerves were embedded in paraffin. The tissue block was cut into 5-μm-thick sections and each tissue section was adhered onto a glass slide. For hematoxylin and eosin staining, each tissue section was 1) deparaffinized, 2) washed with water, 3) stained with Mayer's or Carrazzi's hematoxylin, 4) lightly washed with running water, 5) allowed to develop color, 6) stained with an eosin solution for 1 minute, and 7) subjected to dehydration, clearing, and embedding; and morphologically observed under an optical microscope.
Samples for observation under an electron microscope were prepared in the following manner. Sciatic nerves were removed in the same manner as above and then placed in a fixative (2.5% glutaraldehyde). Ten minutes after being placed in the fixative, the sciatic nerves were removed and placed in several drops of the fixative that had been dropped on a thick plastic sheet beforehand, and cut into thin sections. Post-fixation was performed using an aqueous osmium tetroxide solution. Next, free water contained in the tissue was replaced with ethyl alcohol. In order to make ultrathin sections, the tissue was embedded in an epoxy resin, and tissue sections were produced with an ultramicrotome. Observation was performed using a transmission electron microscope (Hitachi Ltd.: H-7500).

LIS1 protein [5] = assay: Expression amount of LIS1 protein in dorsal root ganglion neurons by western blotting; type: cell-based, mouse; details: 200 μM
Experimental: Dorsal root ganglion neurons were isolated from mice (3 days old or 15 days old) and the expression amount of LIS1 protein was analyzed in the order of time sequence from initiation of culture. Protein extraction was performed by adding 100 μl of a protein-dissolving liquid (30 mM Tris-HCl, pH 6.8, 1.5% sodium dodecyl sulfate (SDS), 0.3% bromophenol blue (BPB), 0.3% 2-mercapto-ethanol (2-ME), and 15% glycerol) per 5×10^4 dorsal root ganglion neurons and further performing ultrasonic treatment to achieve complete solubilization. After the heat treatment at 95° C. for 5 minutes, 1 μl of the obtained protein lysate was separated by 12.5% SDS-acrylamide electrophoresis and subjected to western blotting using anti-LIS1 antibody to detect LIS protein (the left-side figure in FIG. 2). The intensity of the detected band was analyzed (after correction with the intensity of the GAPDH band), and the expression ratio of LIS protein was determined (right-side figure in FIG. 2). […]
After the incubation, the procedures were performed in the same manner as described above in the “Analysis of Expression Amount of LIS1 Protein in Dorsal Root Ganglion Neurons” section to detect LIS protein by western blotting (the left-side figure in FIG. 5). Further, the intensity of the detected band was analyzed to determine the expression ratio of the LIS protein (the right-side figure in FIG. 5).

[6] = complete nerve injury model, oral in diet 200 μg/g body weight/day, 1 week after administration, vs control group

For `COCCOCCOC(=O)N[C@@H](CC(C)C)C(=O)N[C@@H](Cc1ccccc1)C(=O)C(=O)NC1CC1` [Compound 17, ((1S)-1-((((1S)-1-Benzyl-2,3-dioxo-3-(cyclopropylamino)propyl)amino)carbonyl)-3-methylbutyl)carbamic acid 5-methoxy-3-oxapentyl ester], the “condition of the paw” value ([1]; complete injury model, one month after administering, vs control group mouse) is given as “recovered to the extent that the mouse could grasp the cage”, the “recovery of complete nerve injury models (motor function)” value ([1]; continuous administration) is given as “further promoted recovery” and the “effect of amplifying LIS1 protein” value (LIS1 protein [2]) is given as “has an effect of amplifying LIS1 protein”. For the same compound, the “axon elongation (axon length)” value ([3]; neurons from 3-day-old mice) was “axon elongation promotion effect”, the “axon elongation (axon length)” value ([3]; neurons from 15-day-old mice) was “significant axon elongation promotion effect” and the “myelin regeneration in sciatic nerves after nerve cell degeneration” value ([4]; administration started 1 week after severance, analyzed 1 month after severance) was “significantly high myelin regeneration”. The “recovery of myelin (electron microscope)” value [4, 6] was “recovery of myelin”, the “recovery of sciatic nerves (hematoxylin and eosin staining)” value [4, 6] was “significant recovery of sciatic nerves” and the “number of myelin whose recovery was recognized (regeneration of myelin in sciatic nerves)” value ([4]; complete nerve injury model, oral in diet, FIG. 24, vs control group) was “significantly high regeneration of myelin”. For the same compound, the “expression amount of LIS1 protein” value (LIS1 protein [5]; neurons from 3-day-old mice) was “not able to significantly increase the expression amount” and the “expression amount of LIS1 protein” value (LIS1 protein [5]; neurons from 15-day-old mice) was “significantly increased the expression amount of LIS1”.
